Patent US10633419B2, “Immunomodulators” (BRISTOL-MYERS SQUIBB COMPANY, priority 2014, dated 2020)
pIC50: −log10 of the molar value. Positions of bridges follow the written chain, without caps; N, C: chain ends. Non-standard residues stand in square brackets, D forms with d. Residues, ends and D or L forms follow the SMILES beside them. *: point of attachment. δOrn(Nα-Octadecanedioyl) = O=C(O)CCCCCCCCCCCCCCCCC(=O)N[C@@H](CCCN*)C(=O)O; X6 = O=C(O)CCCCCCCCCCCCCCCCC(=O)N[C@@H](CCC(=O)NCCCOCCOCCOCCCN*)C(=O)O; Trp(1-CH2COOH) = N[C@@H](Cc1cn(CC(=O)O)c2ccccc12)C(=O)O; X8 = O=C(O)CCCCCCCCCCCCNC(=O)CCC(=O)NCCCOCCOCCOCCCN*; X9 = O=C(O)CCCCCCCCCCCCCCCCC(=O)N[C@@H](CCN*)C(=O)O; NH(CH2)14COOH = O=C(O)CCCCCCCCCCCCCCN*; NH(CH2)12COOH = O=C(O)CCCCCCCCCCCCN*; Gly(octyl) = CCCCCCCC[C@H](N)C(=O)O; PEG6 = NCCOCCOCCOCCOCCOCCOCCC(=O)O; cisHyp = O=C(O)[C@@H]1C[C@H](O)CN1; Hyp = O=C(O)[C@@H]1C[C@@H](O)CN1; NHhexadecyl = CCCCCCCCCCCCCCCCN*; Myristoyl = CCCCCCCCCCCCCC(=O)*; NMeNle = CCCC[C@H](NC)C(=O)O; Pip = O=C(O)[C@@H]1CCCCN1; NMeA = CN[C@@H](C)C(=O)O; Pra = C#CC[C@H](N)C(=O)O; Aun = NCCCCCCCCCCC(=O)O; Dab = NCC[C@H](N)C(=O)O; Dap = NC[C@H](N)C(=O)O

target: T1, PD-L1 (Homo sapiens, UniProt Q9NZQ7); experiment: PD-1/PD-L1 Homogenous Time-Resolved Fluorescence (HTRF) binding assay (PD-1-Ig/PD-L1-His); settings: inhibition of PD-1-Ig binding to PD-L1-TVMV-His; value given as number; read-out: HTRF IC50
T1 construct: hPDL1(19-239)-TVMV-His; made in house; host or cells: HEK293T
Method in brief: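 HTRF competition in dPBS with 0.1% BSA and 0.05% Tween-20: 20 nM PD-1-Ig added after 15 min compound pre-incubation with 10 nM PD-L1-His, then another 15 min. Signal (665/620 nm) after 30 min with APC anti-His (20 nM) and Eu anti-Ig (1 nM).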

T1 sequence (Q9NZQ7 with tags, fused parts or gaps): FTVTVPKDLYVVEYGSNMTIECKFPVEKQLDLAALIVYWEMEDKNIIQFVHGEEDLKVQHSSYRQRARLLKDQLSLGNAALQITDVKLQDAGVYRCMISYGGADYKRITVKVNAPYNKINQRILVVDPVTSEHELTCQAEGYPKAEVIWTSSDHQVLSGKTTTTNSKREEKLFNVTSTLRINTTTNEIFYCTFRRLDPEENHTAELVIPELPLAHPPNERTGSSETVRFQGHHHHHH

Compound | pIC50
CCCCCCCCCCCCCC(=O)NCCCC[C@H](NC(=O)[C@H](CC(=O)O)NC(=O)CCOCCOCCOCCOCCOCCOCCNC(=O)[C@H](CC(=O)O)NC(=O)CNC(=O)[C@@H]1CSCC(=O)N[C@@H](Cc2ccc(O)cc2)C(=O)N(C)[C@@H](C)C(=O)N[C@@H](CC(=O)O)C(=O)N2CCC[C@H]2C(=O)N[C@@H](Cc2cnc[nH]2)C(=O)N[C@@H](CC(C)C)C(=O)N2C[C@H](O)C[C@H]2C(=O)N[C@@H](Cc2c[nH]c3ccccc23)C(=O)N[C@@H](CO)C(=O)N[C@@H](Cc2c[nH]c3ccccc23)C(=O)N(C)[C@@H](CCCC)C(=O)N(C)[C@@H](CCCC)C(=O)N[C@@H](CCCNC(=N)N)C(=O)N1)C(N)=O [Example 11017] ({CH2CO}-Y[NMeA]DPHL[Hyp]WSW[NMeNle][NMeNle]RCGD[PEG6]DK(Myristoyl)-NH2; thioether N-14) | 6.59
CCCCCCCC[C@H](NC(=O)CCCCCCCCCCNC(=O)[C@@H]1CSCC(=O)N[C@@H](Cc2ccc(O)cc2)C(=O)N(C)[C@@H](C)C(=O)N[C@@H](CC(N)=O)C(=O)N2CCC[C@H]2C(=O)N[C@@H](CN)C(=O)N[C@@H](CC(C)C)C(=O)N2C[C@H](O)C[C@H]2C(=O)N[C@@H](Cc2c[nH]c3ccccc23)C(=O)N[C@@H](CCN)C(=O)N[C@@H](Cc2cn(CC(=O)O)c3ccccc23)C(=O)N(C)[C@@H](CCCC)C(=O)N(C)[C@@H](CCCC)C(=O)N[C@@H](CC(C)C)C(=O)N1)C(=O)O [Example 11102] ({CH2CO}-Y[NMeA]NP[Dap]L[Hyp]W[Dab][Trp(1-CH2COOH)][NMeNle][NMeNle]LC[Aun][Gly(octyl)]-OH; thioether N-14) | 7.89
CCCC[C@H]1C(=O)N(C)[C@@H](CCCC)C(=O)N[C@@H](CC(C)C)C(=O)N[C@H](C(=O)NCC(=O)N[C@@H](Cc2cn(CC[C@H](NC(=O)CCCCCCCCCCCCCCCCC(=O)O)C(=O)O)nn2)C(=O)O)CSCC(=O)N[C@@H](Cc2ccc(O)cc2)C(=O)N2CCCC[C@H]2C(=O)N[C@@H](CC(N)=O)C(=O)N2CCC[C@H]2C(=O)N[C@@H](CN)C(=O)N[C@@H](CC(C)C)C(=O)N2C[C@H](O)C[C@H]2C(=O)N[C@@H](Cc2c[nH]c3ccccc23)C(=O)N[C@@H](CCN)C(=O)N[C@@H](Cc2cn(CC(=O)O)c3ccccc23)C(=O)N1C [Example 13132] | 8.48

same assay, conditions: inhibition of PD-1-Ig binding to PD-L1-TVMV-His; value given as range class; read-out: HTRF IC50

Compound | pIC50
CCCCCCCCCCCCCCCCNC(=O)CNC(=O)CNC(=O)CNC(=O)CNC(=O)[C@@H]1CSCC(=O)N[C@@H](Cc2ccc(O)cc2)C(=O)N(C)[C@@H](C)C(=O)N[C@@H](CC(N)=O)C(=O)N2CCC[C@H]2C(=O)N[C@@H](CN)C(=O)N[C@@H](CC(C)C)C(=O)N2C[C@H](O)C[C@H]2C(=O)N[C@@H](Cc2c[nH]c3ccccc23)C(=O)N[C@@H](CO)C(=O)N[C@@H](Cc2c[nH]c3ccccc23)C(=O)N(C)[C@@H](CCCC)C(=O)N(C)[C@@H](CCCC)C(=O)N[C@@H](CCCNC(=N)N)C(=O)N1 [Example 11108] ({CH2CO}-Y[NMeA]NP[Dap]L[Hyp]WSW[NMeNle][NMeNle]RCGGGG-NHhexadecyl; thioether N-14) | 5.80 to 7.00
C#CC[C@H](NC(=O)CNC(=O)[C@@H]1CSCC(=O)N[C@@H](Cc2ccc(O)cc2)C(=O)N(C)[C@@H](C)C(=O)N[C@@H](CC(N)=O)C(=O)N2CCC[C@H]2C(=O)N[C@@H](CN)C(=O)N[C@@H](CC(C)C)C(=O)N2C[C@H](O)C[C@H]2C(=O)N[C@@H](Cc2c[nH]c3ccccc23)C(=O)N[C@@H](CCN)C(=O)N[C@@H](Cc2cn(CC(=O)O)c3ccccc23)C(=O)N(C)[C@@H](CCCC)C(=O)N(C)[C@@H](CCCC)C(=O)N[C@@H](CC(C)C)C(=O)N1)C(=O)N[C@@H](CCC(=O)NCCCOCCOCCOCCCNC(=O)CC[C@H](NC(=O)CCCCCCCCCCCCCCCCC(=O)O)C(=O)O)C(=O)O [Example 11267] ({CH2CO}-Y[NMeA]NP[Dap]L[Hyp]W[Dab][Trp(1-CH2COOH)][NMeNle][NMeNle]LCG[Pra]E(X6)-OH; thioether N-14) | 7.00 to 8.00
CCCC[C@H]1C(=O)N(C)[C@@H](CCCC)C(=O)N[C@@H](CC(C)C)C(=O)N[C@H](C(=O)NCC(=O)NCC(=O)NCCCCCCCCCCCCCCC(=O)O)CSCC(=O)N[C@@H](Cc2ccc(O)cc2)C(=O)N(C)[C@@H](C)C(=O)N[C@@H](CC(N)=O)C(=O)N2CCC[C@H]2C(=O)N[C@@H](CN)C(=O)N[C@@H](CC(C)C)C(=O)N2C[C@H](O)C[C@H]2C(=O)N[C@@H](Cc2c[nH]c3ccccc23)C(=O)N[C@@H](CCN)C(=O)N[C@@H](Cc2cn(CC(=O)O)c3ccccc23)C(=O)N1C [Example 11194] ({CH2CO}-Y[NMeA]NP[Dap]L[Hyp]W[Dab][Trp(1-CH2COOH)][NMeNle][NMeNle]LCGG-{NH(CH2)14COOH}; thioether N-14) | 7.00 to 8.00
CCCC[C@H]1C(=O)N(C)[C@@H](CCCC)C(=O)N[C@@H](CCC(=O)O)C(=O)N[C@H](C(=O)NCC(=O)N[C@@H](Cc2cn(CC[C@H](NC(=O)CCCCCCCCCCCCCCCCC(=O)O)C(=O)O)nn2)C(=O)O)CSCC(=O)N[C@@H](Cc2ccc(O)cc2)C(=O)N(C)[C@@H](C)C(=O)N[C@@H](CC(=O)O)C(=O)N2CCC[C@H]2C(=O)N[C@@H](CN)C(=O)N[C@@H](CC(C)C)C(=O)N2C[C@H](O)C[C@H]2C(=O)N[C@@H](Cc2c[nH]c3ccccc23)C(=O)N[C@@H](CCN)C(=O)N[C@@H](Cc2cn(CC(=O)O)c3ccccc23)C(=O)N1C [Example 13126] | 7.00 to 8.00
CCCC[C@H]1C(=O)N(C)[C@@H](CCCC)C(=O)N[C@@H](CC(C)C)C(=O)N[C@H](C(=O)NCCCOCCOCCOCCCNC(=O)CCC(=O)NCCCCCCCCCCCCC(=O)O)CSCC(=O)N[C@@H](Cc2ccc(O)cc2)C(=O)N(C)[C@@H](C)C(=O)N[C@@H](CC(=O)O)C(=O)N2CCC[C@H]2C(=O)N[C@@H](Cc2cnc[nH]2)C(=O)N[C@@H](CCCCN)C(=O)N2C[C@H](O)C[C@H]2C(=O)N[C@@H](Cc2c[nH]c3ccccc23)C(=O)N[C@@H](CCCCN)C(=O)N[C@@H](Cc2cn(CC(=O)O)c3ccccc23)C(=O)N1C [Example 11219] ({CH2CO}-Y[NMeA]DPHK[Hyp]WK[Trp(1-CH2COOH)][NMeNle][NMeNle]LC-X8; thioether N-14) | 7.00 to 8.00
CCCC[C@H]1C(=O)N(C)[C@@H](CCCC)C(=O)N[C@@H](CC(C)C)C(=O)N[C@H](C(=O)NCC(=O)N[C@@H](CCC(=O)NCCC[C@H](NC(=O)CCCCCCCCCCCCCCCCC(=O)O)C(=O)O)C(=O)O)CSCC(=O)N[C@@H](Cc2ccc(O)cc2)C(=O)N2CCCC[C@H]2C(=O)N[C@@H](CC(N)=O)C(=O)N2CCC[C@H]2C(=O)N[C@@H](CN)C(=O)N[C@@H](CC(C)C)C(=O)N2C[C@H](O)C[C@H]2C(=O)N[C@@H](Cc2c[nH]c3ccccc23)C(=O)N[C@@H](CCN)C(=O)N[C@@H](Cc2cn(CC(=O)O)c3ccccc23)C(=O)N1C [Example 13142] ({CH2CO}-Y[Pip]NP[Dap]L[Hyp]W[Dab][Trp(1-CH2COOH)][NMeNle][NMeNle]LCGE(δOrn(Nα-Octadecanedioyl))-OH; thioether N-14) | 5.80 to 7.00
CCCC[C@H]1C(=O)N(C)[C@@H](CCCC)C(=O)N[C@@H](CC(C)C)C(=O)N[C@H](C(=O)NCCCCCCCCCCCCC(=O)O)CSCC(=O)N[C@@H](Cc2ccc(O)cc2)C(=O)N(C)[C@@H](C)C(=O)N[C@@H](CC(N)=O)C(=O)N2CCC[C@@H]2C(=O)N[C@@H](CN)C(=O)N[C@@H](CC(C)C)C(=O)N2C[C@@H](O)C[C@H]2C(=O)N[C@@H](Cc2c[nH]c3ccccc23)C(=O)N[C@@H](CCN)C(=O)N[C@@H](Cc2cn(CC(=O)O)c3ccccc23)C(=O)N1C [Example 11204] ({CH2CO}-Y[NMeA]N[dP][Dap]L[cisHyp]W[Dab][Trp(1-CH2COOH)][NMeNle][NMeNle]LC-{NH(CH2)12COOH}; thioether N-14) | 7.00 to 8.00
CCCC[C@H]1C(=O)N(C)[C@@H](CCCC)C(=O)N[C@@H](CC(C)C)C(=O)N[C@H](C(=O)NCC(=O)N[C@@H](CC(=O)NCC[C@H](NC(=O)CCCCCCCCCCCCCCCCC(=O)O)C(=O)O)C(=O)O)CSCC(=O)N[C@@H](Cc2ccc(OC)cc2)C(=O)N2CCCC[C@H]2C(=O)N[C@@H](CC(N)=O)C(=O)N2CCC[C@H]2C(=O)N[C@@H](Cc2c[nH]cn2)C(=O)N[C@@H](CCC(N)=O)C(=O)N2C[C@H](O)C[C@H]2C(=O)N[C@@H](Cc2c[nH]c3ccccc23)C(=O)N[C@@H](CCN)C(=O)N[C@@H](Cc2cn(CC(=O)O)c3ccccc23)C(=O)N1C [Example 13156] ({CH2CO}-Y(Me)[Pip]NPHQ[Hyp]W[Dab][Trp(1-CH2COOH)][NMeNle][NMeNle]LCGD(X9)-OH; thioether N-14) | 8.00 to 9.52
CCCC[C@H]1C(=O)N(C)[C@@H](CCCC)C(=O)N[C@@H](CC(C)C)C(=O)N[C@H](C(=O)NCCCCCCCCCCC(=O)N[C@@H](CC(=O)O)C(N)=O)CSCC(=O)N[C@@H](Cc2ccc(O)cc2)C(=O)N(C)[C@@H](C)C(=O)N[C@@H](CC(N)=O)C(=O)N2CCC[C@H]2C(=O)N[C@@H](Cc2cnc[nH]2)C(=O)N[C@@H](CCC(=O)O)C(=O)N2C[C@H](O)C[C@H]2C(=O)N[C@@H](Cc2c[nH]c3ccccc23)C(=O)N[C@@H](CCN)C(=O)N[C@@H](Cc2cn(CC(=O)O)c3ccccc23)C(=O)N1C [Example 11066] ({CH2CO}-Y[NMeA]NPHE[Hyp]W[Dab][Trp(1-CH2COOH)][NMeNle][NMeNle]LC[Aun]D-NH2; thioether N-14) | 8.00 to 9.52
CCCC[C@H]1C(=O)N(C)[C@@H](CCCC)C(=O)N[C@@H](CC(C)C)C(=O)N[C@H](C(=O)NCC(=O)N[C@@H](CC(=O)NCCC[C@H](NC(=O)CCCCCCCCCCCCCCCCC(=O)O)C(=O)O)C(=O)O)CSCC(=O)N[C@@H](Cc2ccc(O)cc2)C(=O)N2CCCC[C@H]2C(=O)N[C@@H](CC(N)=O)C(=O)N2CCC[C@H]2C(=O)N[C@@H](CN)C(=O)N[C@@H](CC(C)C)C(=O)N2C[C@H](O)C[C@H]2C(=O)N[C@@H](Cc2c[nH]c3ccccc23)C(=O)N[C@@H](CCN)C(=O)N[C@@H](Cc2cn(CC(=O)O)c3ccccc23)C(=O)N1C [Example 13141] ({CH2CO}-Y[Pip]NP[Dap]L[Hyp]W[Dab][Trp(1-CH2COOH)][NMeNle][NMeNle]LCGD(δOrn(Nα-Octadecanedioyl))-OH; thioether N-14) | 5.80 to 7.00
